Measured values from ChEMBL document CHEMBL5512691, “Synthetically Feasible De Novo Molecular Design of Leads Based on a Reinforcement Learning Model: AI-Assisted Discovery of an Anti-IBD Lead Targeting CXCR4” (J Med Chem, 2024).
Calls of active or inactive are those of the source. The rule behind the calls is not given here.

Experiments:
RAW264.7 [1] = test: Inhibition of CXCL-12 induced chemotaxis in mouse RAW264.7 cells incubated for 22 hrs by transwell assay; type: functional
Mus musculus [2] = test: Anti-inflammatory activity in DSS induced C57BL/6 mouse model of colitis assessed as alleviation in colon edema at 25 mg/kg, IG administered twice daily for 2 weeks; type: functional, organism-based
Mus musculus [3] = test: Anti-inflammatory activity in DSS induced C57BL/6 mouse model of colitis assessed as decrease in IL-6 expression at 25 mg/kg, IG administered twice daily for 2 weeks by bioluminescence microscopy; type: functional, organism-based
Mus musculus [4] = test: Anti-inflammatory activity in DSS induced C57BL/6 mouse model of colitis assessed as decrease in number of bleeding points at 25 mg/kg, IG administered twice daily for 2 weeks; type: functional, organism-based
[5] = biological target: T1, C-X-C chemokine receptor type 4 (Homo sapiens, UniProt P61073); test: Competitive binding affinity to CXCR4 (unknown origin) assessed as inhibition of CXCR4 to TN14003 interaction at 10 nM preincubated for 10 mins followed by compound washout and subsequent TN14003 addition for 30 mins prior to incubation under dark condition for 30 mins by DAPI staining based laser scanning confocal microscopic analysis relative to control; set-up: scale not given: the % may be the effect or the level left
T1 sequence (P61073 whole entry): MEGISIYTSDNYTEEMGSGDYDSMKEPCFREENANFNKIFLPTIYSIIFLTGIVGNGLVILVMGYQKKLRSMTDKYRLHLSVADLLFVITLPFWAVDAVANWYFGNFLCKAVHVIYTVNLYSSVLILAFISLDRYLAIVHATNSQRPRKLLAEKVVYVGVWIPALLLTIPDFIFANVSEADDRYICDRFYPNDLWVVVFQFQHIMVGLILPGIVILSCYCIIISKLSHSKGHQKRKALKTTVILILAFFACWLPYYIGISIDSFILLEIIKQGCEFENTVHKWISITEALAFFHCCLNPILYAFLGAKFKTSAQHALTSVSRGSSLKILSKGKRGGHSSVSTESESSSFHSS

RAW264.7 [6] = test: Inhibition of CXCL-12 induced chemotaxis in mouse RAW264.7 cells at 10 nM incubated for 22 hrs by crystal violet staining based transwell assay; type: functional, cell-based
Mus musculus [7] = test: Anti-inflammatory activity in DSS induced C57BL/6 mouse model of colitis assessed as reduction in DAI score at 25 mg/kg, IG administered twice daily for 2 weeks (reference value: 3); type: functional
Mus musculus [8] = test: Anti-inflammatory activity in DSS induced C57BL/6 mouse model of colitis assessed as alleviation in body weight loss at 25 mg/kg, IG administered twice daily for 2 weeks; type: functional, organism-based
[9] = biological target: T1, C-X-C chemokine receptor type 4; test: Competitive binding affinity to CXCR4 (unknown origin) assessed as inhibition of CXCR4 to TN14003 interaction preincubated for 10 mins followed by compound washout and subsequent TN14003 addition for 30 mins prior to incubation under dark condition for 30 mins by DAPI staining based laser scanning confocal microscopic analysis
Mus musculus [10] = test: Anti-inflammatory activity in DSS induced C57BL/6 mouse model of colitis assessed as inhibition rate at 25 mg/kg, IG administered twice daily for 2 weeks; type: functional; set-up: scale not given: the % may be the effect or the level left
Mus musculus [11] = test: Anti-inflammatory activity in DSS induced C57BL/6 mouse model of colitis assessed as decrease in IL-1beta expression at 25 mg/kg, IG administered twice daily for 2 weeks by bioluminescence microscopy; type: functional, organism-based
Mus musculus [12] = test: Anti-inflammatory activity in DSS induced C57BL/6 mouse model of colitis assessed as decrease in TNF-alpha expression at 25 mg/kg, IG administered twice daily for 2 weeks by bioluminescence microscopy; type: functional, organism-based
Mus musculus [13] = test: Anti-inflammatory activity in DSS induced C57BL/6 mouse model of colitis assessed as increase in colon length at 25 mg/kg, IG administered twice daily for 2 weeks; type: functional, organism-based
Mus musculus [14] = test: Anti-inflammatory activity in DSS induced C57BL/6 mouse model of colitis assessed as decrease in colon MPO level at 25 mg/kg, IG administered twice daily for 2 weeks by microplate reader assay; type: functional, organism-based
Mus musculus [15] = test: Anti-inflammatory activity in DSS induced C57BL/6 mouse model of colitis assessed as decrease in number of bleeding area at 25 mg/kg, IG administered twice daily for 2 weeks; type: functional, organism-based
[16] = Bioavailability in Sprague-Dawley rat at 20 mg/kg, IG measured upto 12 hrs by LC-MS/MS analysis; type: ADME, organism-based; conditions: in vivo, po
[17] = Stability in human plasma assessed as compound remaining measured upto 120 mins by LC-MS analysis; type: ADME, cell-free; conditions: read-out: Stability
Mus musculus [18] = test: Anti-inflammatory activity in DSS induced C57BL/6 mouse model of colitis assessed as decrease in thickness of colon mucosa at 25 mg/kg, IG administered twice daily for 2 weeks by bioluminescence microscopy; type: functional, organism-based
[19] = Volume of distribution in Sprague-Dawley rat at 20 mg/kg, IG measured upto 12 hrs by LC-MS/MS analysis; type: ADME, organism-based; conditions: in vivo, po
Mus musculus [20] = test: Anti-inflammatory activity in DSS induced C57BL/6 mouse model of colitis assessed as restoration of structural integrity of epithelium at 25 mg/kg, IG administered twice daily for 2 weeks by bioluminescence microscopy; type: functional, organism-based
[21] = Cmax in Sprague-Dawley rat at 20 mg/kg, IG measured upto 12 hrs by LC-MS/MS analysis; type: ADME, organism-based; conditions: in vivo, po
Mus musculus [22] = test: Anti-inflammatory activity in DSS induced C57BL/6 mouse model of colitis assessed as restoration of integrity of glands at 25 mg/kg, IG administered twice daily for 2 weeks by bioluminescence microscopy; type: functional, organism-based
[23] = Stability in human liver microsomes assessed as half life measured upto 45 mins in presence of NADPH by LC-MS analysis; type: ADME, Microsome
[24] = MRT in Sprague-Dawley rat at 20 mg/kg, IG measured upto 12 hrs by LC-MS/MS analysis; type: ADME, organism-based; conditions: in vivo, po
[25] = AUC(0 to infinity) in Sprague-Dawley rat at 20 mg/kg, IG measured upto 12 hrs by LC-MS/MS analysis; type: ADME, organism-based; conditions: in vivo, po
[26] = AUC(0 to infinity) in Sprague-Dawley rat at 2 mg/kg, iv measured upto 12 hrs by LC-MS/MS analysis; type: ADME, organism-based; conditions: in vivo
[27] = Cmax in Sprague-Dawley rat at 2 mg/kg, iv measured upto 12 hrs by LC-MS/MS analysis; type: ADME, organism-based; conditions: in vivo
[28] = Tmax in Sprague-Dawley rat at 20 mg/kg, IG measured upto 12 hrs by LC-MS/MS analysis; type: ADME, organism-based; conditions: in vivo, po
[29] = Volume of distribution in Sprague-Dawley rat at 2 mg/kg, IV measured upto 12 hrs by LC-MS/MS analysis; type: ADME, organism-based; conditions: in vivo
[30] = Stability in human liver microsomes assessed as compound remaining measured upto 45 mins in presence of NADPH by LC-MS analysis; type: ADME, Microsome; conditions: read-out: Stability
[31] = AUC(0 to t) in Sprague-Dawley rat at 2 mg/kg, iv measured upto 12 hrs by LC-MS/MS analysis; type: ADME, organism-based; conditions: in vivo
[32] = Clearance in Sprague-Dawley rat at 2 mg/kg, iv measured upto 12 hrs by LC-MS/MS analysis; type: ADME, organism-based; conditions: in vivo
[33] = MRT in Sprague-Dawley rat at 2 mg/kg, iv measured upto 12 hrs by LC-MS/MS analysis; type: ADME, organism-based; conditions: in vivo
[34] = Tmax in Sprague-Dawley rat at 2 mg/kg, iv measured upto 12 hrs by LC-MS/MS analysis; type: ADME, organism-based; conditions: in vivo
[35] = Half-life in Sprague-Dawley rat at 2 mg/kg, iv measured upto 12 hrs by LC-MS/MS analysis; type: ADME, organism-based; conditions: in vivo
[36] = AUC(0 to t) in Sprague-Dawley rat at 20 mg/kg, IG measured upto 12 hrs by LC-MS/MS analysis; type: ADME, organism-based; conditions: in vivo, po
Mus musculus [37] = test: Anti-inflammatory activity in DSS induced C57BL/6 mouse model of colitis assessed as decrease in intestinal track inflammation at 25 mg/kg, IG administered twice daily for 2 weeks by bioluminescence microscopy; type: functional, organism-based
Mus musculus [38] = test: Anti-inflammatory activity in DSS induced C57BL/6 mouse model of colitis assessed as restoration of number of goblet cells at 25 mg/kg, IG administered twice daily for 2 weeks by bioluminescence microscopy; type: functional, organism-based
Mus musculus [39] = test: Anti-inflammatory activity in DSS induced C57BL/6 mouse model of colitis assessed as decrease in inflammatory cell infiltration at 25 mg/kg, IG administered twice daily for 2 weeks by bioluminescence microscopy; type: functional, organism-based
[40] = Stability in human plasma assessed as half life measured upto 120 mins by LC-MS analysis; type: ADME, cell-free
[41] = Clearance in Sprague-Dawley rat at 20 mg/kg, IG measured upto 12 hrs by LC-MS/MS analysis; type: ADME, organism-based; conditions: in vivo, po
Mus musculus [42] = test: Anti-inflammatory activity in DSS induced C57BL/6 mouse model of colitis assessed as decrease in inflammatory track infiltration at 25 mg/kg, IG administered twice daily for 2 weeks by bioluminescence microscopy; type: functional, organism-based
[43] = Half-life in Sprague-Dawley rat at 20 mg/kg, IG measured upto 12 hrs by LC-MS/MS analysis; type: ADME, organism-based; conditions: in vivo, po

O=C(NC1CCN(Cc2cccnc2)CC1)c1cnc2ccccc2c1
inhibition (INH) (RAW264.7 [1]): 75.63%
Activity (Mus musculus [2]): Active
Activity (Mus musculus [3]): Active
Activity (Mus musculus [4]): Active
Activity [5]: 67.1%
inhibition (RAW264.7 [6]): Active
Activity (Mus musculus [7]): 2
Activity (Mus musculus [8]): Active
IC50 [9]: 5.7 nM
Activity (Mus musculus [10]): 33.3%
Activity (Mus musculus [11]): Active
Activity (Mus musculus [12]): Active
Activity (Mus musculus [13]): Active
Activity (Mus musculus [14]): Active
Activity (Mus musculus [15]): Active

Cc1cc(O)cc(C(=O)N2CCN(c3ccc(F)cc3)CC2)c1
Activity [5]: 64.3%

O=C(c1cnc2ccccc2c1)N1CCN(c2ccccc2F)CC1
Activity [5]: 52.2%

Cc1ccc(CN2CCN(c3nc(N)c4sccc4n3)CC2)cc1
Activity [5]: 59.1%

O=C(NCc1ccccc1-n1cccn1)c1cnc2ccccc2n1
Activity [5]: 11.1%

Cc1c(C)c2ccc(OCc3ccc(F)c(F)c3)cc2oc1=O
Activity [5]: 51.9%

O=S(=O)(c1ccc(F)c(F)c1)N1CCN(c2ccc3ccccc3n2)CC1
Activity [5]: 64.8%

O=S(=O)(NCc1ccc(-c2ccccc2)cc1)c1cc(F)c(F)cc1F
Activity [5]: 54.9%

COc1ccc(C(=O)N[C@@H]2CCc3[nH]c4ccccc4c3C2)cc1
Activity [5]: 38.3%

O=C(c1ccco1)N1CCN(C2CCN(c3ccccc3)CC2)CC1
bioavailability [16]: 91.1%
remaining at 2 h [17]: 87%
inhibition (INH) (RAW264.7 [1]): 79.19%
Activity (Mus musculus [2]): Active
Activity (Mus musculus [3]): Active
Activity (Mus musculus [18]): Active
Vd [19]: 16.16166 L/kg
Activity (Mus musculus [20]): Active
Cmax [21]: 1440 ng/mL
Activity (Mus musculus [4]): Active
Activity [5]: 78.9%
Activity (Mus musculus [22]): Active
inhibition (RAW264.7 [6]): Active
half-life [23]: 1.12 h
MRT [24]: 2.62 h
AUC(0-inf) [25]: 3070 ng·h/mL
AUC(0-inf) [26]: 340 ng·h/mL
Cmax [27]: 351 ng/mL
Activity (Mus musculus [7]): 1.4
Tmax [28]: 0.25 h
Activity (Mus musculus [8]): Active
IC50 [9]: 3.2 nM
Vd [29]: 6.04 L/kg
remaining at 0.75 h [30]: 62%
AUC(0-t) at 12 h [31]: 330 ng·h/mL
clearance [32]: 99.4 mL/min/kg
MRT [33]: 1.03 h
Activity (Mus musculus [10]): 53.3%
Tmax [34]: 4.8 min
half-life [35]: 0.81 h
Activity (Mus musculus [11]): Active
AUC(0-t) at 12 h [36]: 3010 ng·h/mL
Activity (Mus musculus [37]): Active
Activity (Mus musculus [38]): Active
Activity (Mus musculus [12]): Active
Activity (Mus musculus [13]): Active
Activity (Mus musculus [39]): Active
Activity (Mus musculus [14]): Active
half-life [40]: > 2 h
CL/F [41]: 109 mL/min/kg
Activity (Mus musculus [42]): Active
half-life [43]: 1.71 h
Activity (Mus musculus [15]): Active

CC1CN(C(=O)c2ccccc2C(=O)Nc2ccccc2)CCN1C(=O)c1ccc(F)c(F)c1 (configuration not stated)
Activity [5]: 62.7%

O=C(c1cnc2ccccc2c1)N1CCC(N2CCOCC2)CC1
Activity [5]: 53.6%

O=C(NO)c1ccc(NC(=O)c2ccccc2C(F)(F)F)cc1
Activity [5]: 55.4%

Cc1cccc(NC(=O)N2CCN(c3nccc4ccccc34)CC2)c1
Activity [5]: 33.7%

O=C(NC1CCN(Cc2ccccc2)CC1)c1ccc(Cl)cc1Cl
Activity [5]: 61.2%

O=C(c1cnc2ccccc2c1)N1CCC(N2CCCC2)CC1
Activity [5]: 64.5%

c1cc(CN2CCCNCCNCCCNCC2)ccc1CN1CCCNCCNCCCNCC1 [PLERIXAFOR]
Activity (Mus musculus [3]): Active
Activity [5]: 62.9%
Activity (Mus musculus [7]): 1.8
Activity (Mus musculus [10]): 40%
Activity (Mus musculus [11]): Active
Activity (Mus musculus [12]): Active

CC(=O)N1CCC(N(Cc2cccc(C)c2O)C(=O)c2cccc3ccccc23)CC1
Activity [5]: 59.2%

O=C(c1cc2ccccc2[nH]1)N1CCN(c2ccc(Cl)cn2)CC1
Activity [5]: 40.2%

Fc1ccc(F)c(NCCN2CCN(c3nccc4ccccc34)CC2)c1
Activity [5]: 58.6%

Cc1ccc(C)c(CC(=O)N2CCN(c3ccccc3)CC2)c1
Activity [5]: 59.5%
